Experimental data reported in US20230348424A1, “HETEROCYCLIC COMPOUNDS AND METHODS OF USE” (Schrödinger, Inc., priority 2022, published 2023).

Target: SOS1:KRAS (G12C) interaction (Homo sapiens (Human), UniProt Q07889)
Assay: SOS1 KRas(G12C) FRET Assay
Assay type: binding
Settings: 0.5 nM His10-SOS1 (res. 564-1049), 2.5 nM GST-KRAS G12C (res. 1-169), 2 hrs at RT
Summary of the method: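 GST-KRAS G12C (res. 1-169) at 2.5 nM and His10-SOS1 (res. 564-1049) at 0.5 nM, final, in PBS with 0.1% BSA, 5 mM MgCl2, 100 mM KF, 5 mM DTT and 0.5% DMSO. After 2 h at RT, FRET read at 665/615 nm and normalized to DMSO and no-SOS1 controls. IC50 by non-linear regression.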

Chain of SOS1:KRAS (G12C) interaction (Q07889 564-1049, stated change not applied): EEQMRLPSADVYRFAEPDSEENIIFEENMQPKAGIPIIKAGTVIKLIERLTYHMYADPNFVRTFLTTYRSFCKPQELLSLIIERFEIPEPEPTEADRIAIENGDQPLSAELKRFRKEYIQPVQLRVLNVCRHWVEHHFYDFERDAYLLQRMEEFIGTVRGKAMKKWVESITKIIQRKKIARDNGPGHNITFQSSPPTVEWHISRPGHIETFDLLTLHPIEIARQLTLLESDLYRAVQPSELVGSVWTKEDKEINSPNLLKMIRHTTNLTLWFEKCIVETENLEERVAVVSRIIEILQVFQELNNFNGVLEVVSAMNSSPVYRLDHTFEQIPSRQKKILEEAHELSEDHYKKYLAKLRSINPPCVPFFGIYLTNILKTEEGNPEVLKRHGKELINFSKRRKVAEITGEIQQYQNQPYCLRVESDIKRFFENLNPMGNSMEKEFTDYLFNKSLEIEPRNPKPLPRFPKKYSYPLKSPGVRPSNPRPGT

| Structure (SMILES) | IC50 [µM] |
| --- | --- |
| CCN1C[C@@H]2[C@H](C1)[C@H]2Nc1cc(=O)n(C2(C(F)F)CC2)cc1C(=O)N[C@H](C)c1cccc(C(F)F)c1F [Example 58, N-((R)-1-(3-(difluoromethyl)-2-fluorophenyl)ethyl)-1-(1-(difluoromethyl)cyclopropyl)-4-(((1R,5S,6s)-3-ethyl-3-azabicyclo[3.1.0]hexan-6-yl)amino)-6-oxo-1,6-dihydropyridine-3-carboxamide] | 0.0308 |
| CC(C)N1C[C@@H]2[C@H](C1)[C@H]2Nc1cc(=O)n(C2(C(F)F)CC2)cc1C(=O)N[C@H](C)c1cccc(C(F)F)c1F [Example 59, N-((R)-1-(3-(difluoromethyl)-2-fluorophenyl)ethyl)-1-(1-(difluoromethyl)cyclopropyl)-4-(((1R,5S,6s)-3-isopropyl-3-azabicyclo[3.1.0]hexan-6-yl)amino)-6-oxo-1,6-dihydropyridine-3-carboxamide] | 0.0315 |
| C[C@@H](NC(=O)c1cn(C2(C(F)F)CC2)c(=O)cc1N[C@H]1[C@@H]2CN(C3CC3)C[C@@H]21)c1cccc(C(F)F)c1F [Example 60, 4-(((1R,5S,6s)-3-cyclopropyl-3-azabicyclo[3.1.0]hexan-6-yl)amino)-N-((R)-1-(3-(difluoromethyl)-2-fluorophenyl)ethyl)-1-(1-(difluoromethyl)cyclopropyl)-6-oxo-1,6-dihydropyridine-3-carboxamide] | 0.0412 |
| C[C@@H](NC(=O)c1cn(C2(C(F)F)CC2)c(=O)cc1NC1CCN(C2CC2)CC1)c1cccc(C(F)F)c1F [Example 62, (R)-4-((1-cyclopropylpiperidin-4-yl)amino)-N-(1-(3-(difluoromethyl)-2-fluorophenyl)ethyl)-1-(1-(difluoromethyl)cyclopropyl)-6-oxo-1,6-dihydropyridine-3-carboxamide] | 0.0201 |
| C[C@@H](NC(=O)c1cn([C@@H]2C[C@H]2C2CC2)c(=O)cc1N[C@H]1[C@@H]2CN(C)C[C@@H]21)c1cccc(C(F)F)c1F [Example 71, 1-((1S,2R)-[1,1′-bi(cyclopropan)]-2-yl)-N-((R)-1-(3-(difluoromethyl)-2-fluorophenyl)ethyl)-4-(((1R5S,6s)-3-methyl-3-azabicyclo[3.1.0]hexan-6-yl)amino)-6-oxo-1,6-dihydropyridine-3-carboxamide] | 0.0219 |
| C[C@@H](NC(=O)c1cn(C2(C(F)(F)F)CC2)c(=O)cc1NC1CCN(C)CC1)c1cccc(C(F)F)c1F [Example 75, (R)-N-(1-(3-(difluoromethyl)-2-fluorophenyl)ethyl)-4-((1-methylpiperidin-4-yl)amino)-6-oxo-1-(1-(trifluoromethyl)cyclopropyl)-1,6-dihydropyridine-3-carboxamide] | 0.0155 |
| C[C@@H](NC(=O)c1cn(C2(C(F)F)CCC2)c(=O)cc1NC1CCN(C)CC1)c1cccc(C(F)F)c1F [Example 76, (R)-N-(1-(3-(difluoromethyl)-2-fluorophenyl)ethyl)-1-(1-(difluoromethyl)cyclobutyl)-4-((1-methylpiperidin-4-yl)amino)-6-oxo-1,6-dihydropyridine-3-carboxamide] | 0.0125 |
| C[C@@H](NC(=O)c1cn(C2(CF)CC2)c(=O)cc1NC1CCN(C)CC1)c1cccc(C(F)F)c1F [Example 77, (R)-N-(1-(3-(difluoromethyl)-2-fluorophenyl)ethyl)-1-(1-(fluoromethyl)cyclopropyl)-4-((1-methylpiperidin-4-yl)amino)-6-oxo-1,6-dihydropyridine-3-carboxamide] | 0.0137 |
| C[C@@H](NC(=O)c1cn(C2(C)CN(C(=O)C3CC3)C2)c(=O)cc1NC1CCN(C)CC1)c1cccc(C(F)F)c1F [Example 78, (R)-1-(1-(cyclopropanecarbonyl)-3-methylazetidin-3-yl)-N-(1-(3-(difluoromethyl)-2-fluorophenyl)ethyl)-4-((1-methylpiperidin-4-yl)amino)-6-oxo-1,6-dihydropyridine-3-carboxamide] | 0.0009 |
| C[C@@H](NC(=O)c1cn(C23CC(C2)C3)c(=O)cc1N[C@H]1[C@@H]2CNC[C@@H]21)c1cccc(C(F)F)c1F [Example 89, 4-(((1R,5S,6s)-3-azabicyclo[3.1.0]hexan-6-yl)amino)-1-(bicyclo[1. 1.1]pentan-1-yl)-N-((R)-1-(3-(difluoromethyl)-2-fluorophenyl)ethyl)-6-oxo-1,6-dihydropyridine-3-carboxamide] | 0.0229 |
| C[C@@H](NC(=O)c1cn(C2CCC2)c(=O)cc1N[C@H]1[C@@H]2CN(C)C[C@@H]21)c1cccc(C(F)F)c1F [Example 150, 1-cyclobutyl-N-((R)-1-(3-(difluoromethyl)-2-fluorophenyl)ethyl)-4-(((1R,5S,6s)-3-methyl-3-azabicyclo[3.1.0]hexan-6-yl)amino)-6-oxo-1,6-dihydropyridine-3-carboxamide] | 0.0123 |
| Cc1c([C@@H](C)NC(=O)c2cn(C3CCOCC3)c(=O)cc2SC2CCNCC2)cccc1C(F)(F)F [Example 157, (R)-N-(1-(2-methyl-3-(trifluoromethyl)phenyl)ethyl)-6-oxo-4-(piperidin-4-ylthio)-1-(tetrahydro-2H-pyran-4-yl)-1,6-dihydropyridine-3-carboxamide] | 0.218 |
| CN1C[C@@H]2[C@H](C1)[C@H]2Nc1cc(=O)n(C2(C(F)F)CC2)cc1C(=O)N[C@@H](c1cccc(C(F)F)c1F)C(F)F [Example 158, N-((S)-1-(3-(difluoromethyl)-2-fluorophenyl)-2,2-difluoroethyl)-1-(1-(difluoromethyl)cyclopropyl)-4-(((1R,5S,6s)-3-methyl-3-azabicyclo[3.1.0]hexan-6-yl)amino)-6-oxo-1,6-dihydropyridine-3-carboxamide] | 0.082 |
| CN1C[C@@H]2[C@H](C1)[C@H]2Nc1cc(=O)n(C2(C(F)F)CC2)cc1C(=O)N[C@H](c1cccc(C(F)F)c1F)C(F)F [Example 159, N-((R)-1-(3-(difluoromethyl)-2-fluorophenyl)-2,2-difluoroethyl)-1-(1-(difluoromethyl)cyclopropyl)-4-(((1R,5S,6s)-3-methyl-3-azabicyclo[3.1.0]hexan-6-yl)amino)-6-oxo-1,6-dihydropyridine-3-carboxamide] | 1.06 |
| C[C@@H](NC(=O)c1cn(C23CC(C2)C3)c(=O)cc1N[C@H]1[C@@H]2CN(C)C[C@@H]21)c1cccc(C(F)(F)F)c1 [Example 160, 1-(bicyclo[1.1.1]pentan-1-yl)-4-(((1R,5S,6s)-3-methyl-3-azabicyclo[3.1.0]hexan-6-yl)amino)-6-oxo-N-((R)-1-(3-(trifluoromethyl)phenyl)ethyl)-1,6-dihydropyridine-3-carboxamide] | 0.0214 |
| C[C@@H](NC(=O)c1cn(C23CC(C2)C3)c(=O)cc1N[C@H]1[C@@H]2CN(C)C[C@@H]21)c1cccc(S(F)(F)(F)(F)F)c1 [Example 161, 1-(bicyclo[1.1.1]pentan-1-yl)-4-(((1R,5S,6s)-3-methyl-3-azabicyclo[3 .1.0]hexan-6-yl)amino)-6-oxo-N-((R)-1-(3-(pentafluoro-16-sulfaneyl)phenyl)ethyl)-1,6-dihydropyridine-3-carboxamide] | 0.024 |
| C[C@@H](NC(=O)c1cn(C23CC(C2)C3)c(=O)cc1N[C@H]1[C@@H]2CN(C)C[C@@H]21)c1cccc(S(F)(F)(F)(F)F)c1F [Example 162, 1-(bicyclo[1.1.1]pentan-1-yl)-N-((R)-1-(2-fluoro-3-(pentafluoro-16-sulfaneyl)phenyl)ethyl)-4-(((1R,5S,6s)-3-methyl-3-azabicyclo[3.1.0]hexan-6-yl)amino)-6-oxo-1,6-dihydropyridine-3-carboxamide] | 0.0278 |
| C[C@@H](NC(=O)c1cn(C2CCC2)c(=O)cc1N[C@H]1[C@@H]2CN(C)C[C@@H]21)c1cccc(S(F)(F)(F)(F)F)c1 [Example 163, 1-cyclobutyl-4-(((1R,5S,6s)-3-methyl-3-azabicyclo[3.1.0]hexan-6-yl)amino)-6-oxo-N-((R)-1-(3-(pentafluoro-16-sulfaneyl)phenyl)ethyl)-1,6-dihydropyridine-3-carboxamide] | 0.0293 |
| C[C@@H](NC(=O)c1cn(C2CCC2)c(=O)cc1NC1CCN(C)CC1)c1cccc(S(F)(F)(F)(F)F)c1 [Example 164, (R)-1-cyclobutyl-4-((1-methylpiperidin-4-yl)amino)-6-oxo-N-(1-(3-(pentafluoro-16-sulfaneyl)phenyl)ethyl)-1,6-dihydropyridine-3-carboxamide] | 0.0135 |
| CC(NC(=O)c1cn(C2(C(F)F)CC2)c(=O)cc1NC1CCN(C)CC1)c1ccc(C2CC2)c(C(F)(F)F)c1 (centres unmarked) [Example 169, N-(1-(4-cyclopropyl-3-(trifluoromethyl)phenyl)ethyl)-1-(1-(difluoromethyl)cyclopropyl)-4-((1-methylpiperidin-4-yl)amino)-6-oxo-1,6-dihydropyridine-3-carboxamide] | 5.9 |
| CC(NC(=O)c1cn(C2(C(F)F)CC2)c(=O)cc1NC1CCN(C)CC1)c1cccc(C(F)(F)F)c1Cl (centres unmarked) [Example 170, N-(1-(2-chloro-3-(trifluoromethyl)phenyl)ethyl)-1-(1-(difluoromethyl)cyclopropyl)-4-((1-methylpiperidin-4-yl)amino)-6-oxo-1,6-dihydropyridine-3-carboxamide] | 0.0409 |
| COc1ccc(C(C)NC(=O)c2cn(C3(C(F)F)CC3)c(=O)cc2NC2CCN(C)CC2)cc1C(F)(F)F (centres unmarked) [Example 173, 1-(1-(difluoromethyl)cyclopropyl)-N-(1-(4-methoxy-3-(trifluoromethyl)phenyl)ethyl)-4-((1-methylpiperidin-4-yl)amino)-6-oxo-1,6-dihydropyridine-3-carboxamide] | 1.18 |
| C[C@@H](NC(=O)c1cn(C2(C(F)F)CC2)c(=O)cc1N[C@H]1[C@@H]2CN(C)C[C@@H]21)c1cccc(C(F)(F)c2ccncc2)c1F [Example 174, N-((R)-1-(3-(difluoro(pyridin-4-yl)methyl)-2-fluorophenyl)ethyl)-1-(1-(difluoromethyl)cyclopropyl)-4-(((1R,5S,6s)-3-methyl-3-azabicyclo[3.1.0]hexan-6-yl)amino)-6-oxo-1,6-dihydropyridine-3-carboxamide] | 1.18 |
